Laboratory results published in ChEMBL document CHEMBL1201862, “PubChem BioAssay data set” (2004).
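Test compounds were applied to cells in 96-well plates for 48 hours at 5 doses. The concentration for 50% growth inhibition is given as GI50.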 Active and inactive are the calls of the source. No stated cut-off is given here; in the data, active = GI50 up to about 1.1 µM and inactive = higher.

What was measured:
Assay in all cases: growth of human tumour cells (NCI), 48 h
IGROV-1 = test system: IGROV-1
SW-620 = test system: SW-620
NCI/ADR-RES = test system: NCI/ADR-RES
MCF7 = test system: MCF7
T47D = test system: T47D
UACC-62 = test system: UACC-62
SN12C = test system: SN12C
ACHN = test system: ACHN
SF-295 = test system: SF-295
UACC-257 = test system: UACC-257
HOP-92 = test system: HOP-92
TK-10 = test system: TK-10
MDA-MB-231 = test system: MDA-MB-231
SF-268 = test system: SF-268
SNB-19 = test system: SNB-19
A498 = test system: A498
NCI-H460 = test system: NCI-H460
K562 = test system: K562
OVCAR-4 = test system: OVCAR-4
EKVX = test system: EKVX
CCRF-CEM = test system: CCRF-CEM
MDA-MB-435 = test system: MDA-MB-435
SK-MEL-2 = test system: SK-MEL-2
UO-31 = test system: UO-31
SK-MEL-5 = test system: SK-MEL-5
NCI-H226 = test system: NCI-H226
DU-145 = test system: DU-145
HCT-116 = test system: HCT-116
NCI-H23 = test system: NCI-H23
A549 = test system: A549
MDA-N = test system: MDA-N
OVCAR-3 = test system: OVCAR-3
OVCAR-5 = test system: OVCAR-5
COLO 205 = test system: COLO 205
KM12 = test system: KM12
SK-MEL-28 = test system: SK-MEL-28
CAKI-1 = test system: CAKI-1
NCI-H522 = test system: NCI-H522
HCT-15 = test system: HCT-15
Hs-578T = test system: Hs-578T
OVCAR-8 = test system: OVCAR-8
Malme-3M = test system: Malme-3M
786-0 = test system: 786-0
RPMI-8226 = test system: RPMI-8226
HOP-62 = test system: HOP-62
M14 = test system: M14
MOLT-4 = test system: MOLT-4
U-251 = test system: U-251
PC-3 = test system: PC-3
BT-549 = test system: BT-549
HT-29 = test system: HT-29
LOX IMVI = test system: LOX IMVI
HL-60 = test system: HL-60
HCC 2998 = test system: HCC 2998
SNB-75 = test system: SNB-75
SK-OV-3 = test system: SK-OV-3
RXF 393 = test system: RXF 393
SF-539 = test system: SF-539

Cc1cc(Nc2ccc(NS(C)(=O)=O)cc2)c2c(ccc3[nH]ccc32)n1
GI50 (IGROV-1): 28.6 µM (inactive)
GI50 (SW-620): 21.7 µM (inactive)
GI50 (NCI/ADR-RES): > 100 µM (inactive)
GI50 (MCF7): 7.4 µM (inactive)
GI50 (T47D): 3.5 µM (inactive)
GI50 (UACC-62): 15.7 µM (inactive)
GI50 (SN12C): 17.8 µM (inactive)
GI50 (ACHN): 22.8 µM (inactive)
GI50 (SF-295): 22.3 µM (inactive)
GI50 (UACC-257): 17.3 µM (inactive)
GI50 (HOP-92): 19 µM (inactive)
GI50 (TK-10): 28.6 µM (inactive)
GI50 (MDA-MB-231): 16.4 µM (inactive)
GI50 (SF-268): 7.24 µM (inactive)
GI50 (SNB-19): 18.1 µM (inactive)
GI50 (A498): 21.2 µM (inactive)
GI50 (NCI-H460): 19.3 µM (inactive)
GI50 (K562): 13.6 µM (inactive)
GI50 (OVCAR-4): 12.4 µM (inactive)
GI50 (EKVX): 36 µM (inactive)
GI50 (CCRF-CEM): 7.87 µM (inactive)
GI50 (MDA-MB-435): 16.1 µM (inactive)
GI50 (SK-MEL-2): 15.9 µM (inactive)
GI50 (UO-31): > 100 µM (inactive)
GI50 (SK-MEL-5): 15.1 µM (inactive)
GI50 (NCI-H226): 19.5 µM (inactive)
GI50 (DU-145): 18.8 µM (inactive)
GI50 (HCT-116): 17.2 µM (inactive)
GI50 (NCI-H23): 20.7 µM (inactive)
GI50 (A549): 33.3 µM (inactive)
GI50 (MDA-N): 17.6 µM (inactive)
GI50 (OVCAR-3): 13.1 µM (inactive)
GI50 (OVCAR-5): 26.2 µM (inactive)
GI50 (COLO 205): 14.3 µM (inactive)
GI50 (KM12): 10.8 µM (inactive)
GI50 (SK-MEL-28): 17.7 µM (inactive)
GI50 (CAKI-1): 29.5 µM (inactive)
GI50 (NCI-H522): 9.35 µM (inactive)
GI50 (HCT-15): > 100 µM
GI50 (Hs-578T): 28.6 µM (inactive)
GI50 (OVCAR-8): 22.9 µM (inactive)
GI50 (Malme-3M): 12.5 µM (inactive)
GI50 (786-0): 20.4 µM (inactive)
GI50 (RPMI-8226): 20.6 µM (inactive)
GI50 (HOP-62): 19.4 µM (inactive)
GI50 (M14): 16.6 µM (inactive)
GI50 (MOLT-4): 2.77 µM (inactive)
GI50 (U-251): 15.1 µM (inactive)
GI50 (PC-3): 20.4 µM (inactive)
GI50 (BT-549): 21.9 µM (inactive)
GI50 (HT-29): 27.5 µM (inactive)
GI50 (LOX IMVI): 18.5 µM (inactive)

O[C@@]1(c2cccs2)c2cccc(Cl)c2[C@](O)(c2cccs2)c2cccc(Cl)c21
GI50 (IGROV-1): 16.3 µM (inactive)
GI50 (SW-620): 17.3 µM (inactive)
GI50 (NCI/ADR-RES): 22.6 µM (inactive)
GI50 (MCF7): 18.5 µM (inactive)
GI50 (T47D): 32.9 µM (inactive)
GI50 (UACC-62): 11 µM (inactive)
GI50 (SN12C): 17.9 µM (inactive)
GI50 (ACHN): 17 µM (inactive)
GI50 (SF-295): 11.1 µM (inactive)
GI50 (UACC-257): 15.2 µM (inactive)
GI50 (HOP-92): 67.9 µM (inactive)
GI50 (HL-60): 16.6 µM (inactive)
GI50 (TK-10): 28.1 µM (inactive)
GI50 (MDA-MB-231): 17.3 µM (inactive)
GI50 (SF-268): 19.8 µM (inactive)
GI50 (SNB-19): 26.7 µM (inactive)
GI50 (A498): 12.6 µM (inactive)
GI50 (NCI-H460): 16.9 µM (inactive)
GI50 (K562): 25.5 µM (inactive)
GI50 (OVCAR-4): 18.2 µM (inactive)
GI50 (HCC 2998): 17.6 µM (inactive)
GI50 (EKVX): 16.8 µM (inactive)
GI50 (CCRF-CEM): 33.3 µM (inactive)
GI50 (SNB-75): > 100 µM (inactive)
GI50 (MDA-MB-435): 17.2 µM (inactive)
GI50 (SK-MEL-2): 18.2 µM (inactive)
GI50 (UO-31): 46.7 µM (inactive)
GI50 (SK-OV-3): 22.6 µM (inactive)
GI50 (SK-MEL-5): 17.3 µM (inactive)
GI50 (NCI-H226): 22.1 µM (inactive)
GI50 (DU-145): 24.7 µM (inactive)
GI50 (HCT-116): 13.2 µM (inactive)
GI50 (RXF 393): 16.3 µM (inactive)
GI50 (NCI-H23): 18.1 µM (inactive)
GI50 (A549): 14.9 µM (inactive)
GI50 (MDA-N): 16.8 µM (inactive)
GI50 (OVCAR-3): 16.3 µM (inactive)
GI50 (OVCAR-5): 16.2 µM (inactive)
GI50 (COLO 205): 19.5 µM (inactive)
GI50 (KM12): 16.4 µM (inactive)
GI50 (SK-MEL-28): 17.3 µM (inactive)
GI50 (CAKI-1): 24.4 µM (inactive)
GI50 (NCI-H522): 18.2 µM (inactive)
GI50 (HCT-15): 21.2 µM
GI50 (Hs-578T): 12.8 µM (inactive)
GI50 (OVCAR-8): 55.7 µM (inactive)
GI50 (Malme-3M): 17.8 µM (inactive)
GI50 (786-0): 16.4 µM (inactive)
GI50 (RPMI-8226): 22 µM (inactive)
GI50 (HOP-62): 26.1 µM (inactive)
GI50 (M14): 15.4 µM (inactive)
GI50 (MOLT-4): 15.9 µM (inactive)
GI50 (U-251): 16.8 µM (inactive)
GI50 (PC-3): 19.1 µM (inactive)
GI50 (BT-549): 19.2 µM (inactive)
GI50 (HT-29): 17.2 µM (inactive)
GI50 (SF-539): 29.2 µM (inactive)
GI50 (LOX IMVI): 16.4 µM (inactive)
